The results in this text go back to ChEMBL document CHEMBL1150213, “Protein-tyrosine kinase inhibition: mechanism-based discovery of antitumor agents” (J Nat Prod, 1992).

The structures appear in SMILES notation. pIC50, pKi: −log10 of the molar value. Bounds are passed on as bounds.

Test [1] has as its target T1, Epidermal growth factor receptor (Homo sapiens, UniProt P00533).
Test [2] deals with T2, Tyrosine-protein kinase transforming protein Abl (Abelson murine leukemia virus, UniProt P00521).
T2 sequence (P00521 whole entry): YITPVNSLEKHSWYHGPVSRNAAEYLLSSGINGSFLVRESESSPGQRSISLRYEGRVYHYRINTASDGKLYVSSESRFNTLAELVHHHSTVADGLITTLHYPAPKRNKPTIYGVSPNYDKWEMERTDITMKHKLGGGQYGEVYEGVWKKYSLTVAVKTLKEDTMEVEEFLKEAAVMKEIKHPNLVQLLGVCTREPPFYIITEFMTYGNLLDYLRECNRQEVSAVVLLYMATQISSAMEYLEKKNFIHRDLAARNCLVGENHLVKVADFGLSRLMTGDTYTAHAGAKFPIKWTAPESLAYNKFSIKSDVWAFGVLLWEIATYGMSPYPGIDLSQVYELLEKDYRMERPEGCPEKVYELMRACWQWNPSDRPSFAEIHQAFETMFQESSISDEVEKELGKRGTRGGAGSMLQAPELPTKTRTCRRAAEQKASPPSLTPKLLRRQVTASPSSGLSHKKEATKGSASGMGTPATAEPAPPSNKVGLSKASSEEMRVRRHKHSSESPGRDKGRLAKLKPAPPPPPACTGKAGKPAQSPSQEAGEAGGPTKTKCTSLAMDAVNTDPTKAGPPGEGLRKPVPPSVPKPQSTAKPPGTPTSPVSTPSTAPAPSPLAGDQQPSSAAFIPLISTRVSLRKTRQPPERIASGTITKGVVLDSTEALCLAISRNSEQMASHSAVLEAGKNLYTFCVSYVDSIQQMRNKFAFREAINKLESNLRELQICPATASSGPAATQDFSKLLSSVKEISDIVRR
Description: Inhibition of Abelson murine leukemia virus p60 v-abl

Test [3] has as its target Tyrosine-protein kinase Lck (Homo sapiens, UniProt P06239).
Test [4] concerns the target T1, Epidermal growth factor receptor. The source holds these as a separate data set.
Description: Inhibition of EGFR in human A431 cells

T1 sequence (P00533 whole entry): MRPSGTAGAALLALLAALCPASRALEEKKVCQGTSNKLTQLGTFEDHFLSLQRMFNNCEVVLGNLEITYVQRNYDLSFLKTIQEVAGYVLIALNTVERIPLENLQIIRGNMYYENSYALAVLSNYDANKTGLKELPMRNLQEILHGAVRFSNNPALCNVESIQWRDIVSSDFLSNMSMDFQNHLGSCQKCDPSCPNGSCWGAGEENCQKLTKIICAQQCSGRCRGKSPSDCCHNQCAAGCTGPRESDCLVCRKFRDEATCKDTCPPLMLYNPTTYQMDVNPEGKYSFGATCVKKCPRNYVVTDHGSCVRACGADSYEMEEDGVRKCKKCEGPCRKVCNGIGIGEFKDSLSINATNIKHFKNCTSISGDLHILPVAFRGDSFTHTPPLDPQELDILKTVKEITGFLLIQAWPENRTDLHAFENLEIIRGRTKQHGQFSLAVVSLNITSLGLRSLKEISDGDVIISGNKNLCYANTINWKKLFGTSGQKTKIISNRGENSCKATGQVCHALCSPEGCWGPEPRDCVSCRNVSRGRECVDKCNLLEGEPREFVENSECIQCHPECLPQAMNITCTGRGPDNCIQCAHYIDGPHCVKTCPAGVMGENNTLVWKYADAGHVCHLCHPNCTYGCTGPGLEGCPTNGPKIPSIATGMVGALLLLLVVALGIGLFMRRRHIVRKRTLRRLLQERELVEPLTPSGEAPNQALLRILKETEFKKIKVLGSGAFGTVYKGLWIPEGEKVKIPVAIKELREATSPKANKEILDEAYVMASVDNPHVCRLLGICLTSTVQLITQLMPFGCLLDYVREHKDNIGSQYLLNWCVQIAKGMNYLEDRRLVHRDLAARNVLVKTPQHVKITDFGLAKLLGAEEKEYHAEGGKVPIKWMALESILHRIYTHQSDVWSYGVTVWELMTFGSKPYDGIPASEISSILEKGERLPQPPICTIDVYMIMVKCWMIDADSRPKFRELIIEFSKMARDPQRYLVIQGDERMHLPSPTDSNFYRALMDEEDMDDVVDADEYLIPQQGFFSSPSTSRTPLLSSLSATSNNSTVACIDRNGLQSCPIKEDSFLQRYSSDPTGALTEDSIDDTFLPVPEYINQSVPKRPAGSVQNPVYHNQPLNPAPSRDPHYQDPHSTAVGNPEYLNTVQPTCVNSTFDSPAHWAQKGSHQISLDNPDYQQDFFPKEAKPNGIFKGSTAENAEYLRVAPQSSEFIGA
Sequence of Tyrosine-protein kinase Lck (P06239 whole entry): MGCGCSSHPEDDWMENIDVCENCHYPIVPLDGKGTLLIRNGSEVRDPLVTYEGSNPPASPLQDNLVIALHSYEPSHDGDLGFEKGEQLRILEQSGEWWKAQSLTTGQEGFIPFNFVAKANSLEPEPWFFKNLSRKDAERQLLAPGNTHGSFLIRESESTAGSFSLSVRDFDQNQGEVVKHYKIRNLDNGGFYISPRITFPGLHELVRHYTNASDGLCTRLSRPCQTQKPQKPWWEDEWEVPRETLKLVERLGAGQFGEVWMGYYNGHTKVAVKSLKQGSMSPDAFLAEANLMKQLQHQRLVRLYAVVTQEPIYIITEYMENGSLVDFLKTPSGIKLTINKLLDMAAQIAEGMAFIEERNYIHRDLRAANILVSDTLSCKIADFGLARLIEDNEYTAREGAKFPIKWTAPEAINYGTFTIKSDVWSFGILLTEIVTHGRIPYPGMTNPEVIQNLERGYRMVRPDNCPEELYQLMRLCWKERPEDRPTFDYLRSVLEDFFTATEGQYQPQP

As usually defined, the pIC50 is −log10 of the IC50, conventionally taken in molar units. Turning to `COc1cc(/C=C(\C#N)C(N)=O)cc(CSc2ccccc2)c1O`, the negative-log IC50 (pIC50) in test [1] is 6.30.

`CCOC(=O)C(=O)Oc1ccc(-c2c(C(=O)OCC)oc3cc(O)cc(O)c3c2=O)cc1`: the pIC50 in test [1] is 6.00. With `COC(=O)/C=C/c1cc(O)ccc1O`, the negative-log IC50 (pIC50) in test [1] is 3.99. On the same count and under the same terms, the value for `O=C(O)c1oc2cc(O)cc(O)c2c(=O)c1-c1ccc(O)cc1` was 5.20. `Cc1ccc(NP(=O)(O)OP(=O)(O)OP(=O)(O)OP(=O)(O)OC[C@H]2O[C@@H](n3cnc4c(N)ncnc43)[C@H](O)[C@@H]2O)cc1` had a pIC50 in test [2] of 4.70. Consider `O=C(O)/C=C/c1cc(O)ccc1O`, for which the pIC50 in test [1] was 4.35.

The compound `CC(=O)NC(Cc1ccc(NP(=O)(O)OP(=O)(O)OP(=O)(O)OP(=O)(O)OC[C@H]2O[C@@H](n3cnc4c(N)ncnc43)[C@H](O)[C@@H]2O)cc1)C(N)=O` (stereo partly drawn) gave a negative logarithm of the IC50 (pIC50) in test [2] of 4.00. The compound `O=CN/C=C/c1ccc(O)c(O)c1O` gave a pIC50 in test [1] of 5.34. Compound `COc1cc(-c2cc(=O)c3ccc(OC)c(OC)c3o2)cc(OC)c1OC` showed a negative logarithm of the IC50 (pIC50) in test [3] of less than 2.67.

In test [1], `O=CN/C=C/c1ccc(O)c(O)c1` gave a negative logarithm of the IC50 (pIC50) of 5.25. Turning to `CC(=O)Oc1ccc2c(c1)C(=O)c1ccccc1C2=O`, the pIC50 in test [3] is less than 2.52. `CCOc1cc(/C=C(\C#N)C(N)=O)cc(CSc2ccc(O)cc2)c1O` had a pIC50 in test [1] of 5.52. Same read-out and setting: then `CCOC(=O)CSCc1oc2cc(O)cc(O)c2c(=O)c1-c1ccc(O)cc1`, with 5.00; and `COc1ccc(O)c(/C=C/NC=O)c1`, with less than 4.51.

In test [2], `Nc1ncnc2c1ncn2[C@@H]1O[C@H](COC(=O)c2ccc(S(=O)(=O)Oc3ccccc3)cc2)[C@@H](O)[C@H]1O` gave a pIC50 of 3.70.

`Nc1ncnc2c1ncn2[C@@H]1O[C@H](COC(=O)c2ccc(S(=O)(=O)Nc3ccccc3)cc2)[C@@H](O)[C@H]1O`: the pIC50 in test [2] is 4.70. Turning to `O=c1cc(-c2ccc(OCc3ccccc3)cc2)oc2cccc(O)c12`, the pIC50 in test [3] was less than 2.63. Compound `Nc1ncnc2c1ncn2[C@@H]1O[C@H](COP(=O)(O)OP(=O)(O)OP(=O)(O)Oc2ccccc2)[C@@H](O)[C@H]1O` gave a pIC50 in test [2] of 5.00. `CCOc1cc(/C=C(\C#N)C(N)=O)cc(CSc2ccccc2)c1O`: in test [1], the pIC50 is 6.40. With `O=CN/C=C/c1ccccc1O`, the pIC50 in test [1] is less than 3.21. Consider `O=c1c(-c2ccc(O)cc2)c(CN2CCCCC2)oc2cc(O)cc(O)c12`, for which the negative-log IC50 (pIC50) in test [1] is 4.57.

The compound `O=CN/C=C/c1ccc(O)cc1` had a pIC50 in test [1] of less than 4.21. The same measure, in the same setting: then `O=CN/C=C/c1ccc(O)cc1O`, with less than 3.78; and `O=CN/C=C/c1cccc(O)c1O`, with 5.78. In the case of `Nc1ncnc2c1ncn2[C@@H]1O[C@H](COC(=O)c2ccc(S(=O)(=O)NCc3ccccc3)cc2)[C@@H](O)[C@H]1O`, in test [2], the negative-log IC50 (pIC50) was 4.30. On the same count and under the same terms, then `Cc1ccc(NP(=O)(O)OP(=O)(O)OP(=O)(O)OC[C@H]2O[C@@H](n3cnc4c(N)ncnc43)[C@H](O)[C@@H]2O)cc1`, with 3.70. `CCOC(=O)c1oc2cc(O)cc(O)c2c(=O)c1-c1ccc(O)cc1` gave a negative logarithm of the IC50 (pIC50) in test [1] of 5.23. On the same count and under the same terms, the value for `CC(=O)N/C=C/c1cc(O)ccc1O` was 4.81. Compound `Nc1ncnc2c1ncn2[C@@H]1O[C@H](COC(=O)c2ccc(S(N)(=O)=O)cc2)[C@@H](O)[C@H]1O` showed a pIC50 in test [2] of 4.00. The compound `N#C/C(=C\c1cc(CSc2ccccc2)c(O)c(OCc2ccccc2)c1)C(N)=O` showed a negative-log IC50 (pIC50) in test [1] of 6.10. Consider `CC(C)(C)c1cc(/C=C(\C#N)C(N)=O)cc(C(C)(C)C)c1O`, for which, in test [1], the negative-log IC50 (pIC50) was 4.30.

Take `N#C/C(=C\c1cc(-c2ccccc2)c(O)c(-c2ccccc2)c1)C(N)=O`: the negative logarithm of the IC50 (pIC50) in test [1] was 6.40. Same read-out and setting: the value for `CC(C)OC(=O)c1oc2cc(O)cc(O)c2c(=O)c1-c1ccc(O)cc1` was 4.55. In turn, `C[C@H](NC(=O)[C@H](C)NC(=O)c1ccc(S(=O)(=O)Oc2ccc(/C=C/[N+](=O)[O-])cc2)cc1)C(=O)O` gave a negative-log IC50 (pIC50) in test [2] of 4.40. For `CCOc1cc(/C=C2/CCNC2=O)cc(CSc2ccccc2)c1O`, the negative-log IC50 (pIC50) in test [1] was 6.05. The same measure, in the same setting: the value for `CSCc1oc2cc(O)cc(O)c2c(=O)c1-c1ccc(O)cc1` was 4.82; that for `NC(=O)c1oc2cc(O)cc(O)c2c(=O)c1-c1ccc(O)cc1` was 4.50. `Nc1ncnc2c1ncn2[C@@H]1O[C@H](COC(=O)c2ccc(S(=O)(=O)F)cc2)[C@@H](O)[C@H]1O`: the negative-log IC50 (pIC50) in test [2] is 3.70. The compound `O=CN/C=C/c1cccc(O)c1` showed a negative-log IC50 (pIC50) in test [1] of less than 4.21.

As to `CC(C)c1cc(/C=C(\C#N)C(N)=O)cc(C(C)C)c1O`, in test [1], the pIC50 was 6.00. For `CC(=O)NC(Cc1ccc(OS(=O)(=O)c2ccc(C(=O)OC[C@H]3O[C@@H](n4cnc5c(N)ncnc54)[C@H](O)[C@@H]3O)cc2)cc1)C(N)=O` (stereo partly drawn), in test [2], the pIC50 was 4.00. Still for that read-out and setting: then `CC(=O)NC(Cc1ccc(NP(=O)(O)OP(=O)(O)OP(=O)(O)OC[C@H]2O[C@@H](n3cnc4c(N)ncnc43)[C@H](O)[C@@H]2O)cc1)C(N)=O` (stereo partly drawn), with 4.40. `O=CN/C=C/c1cc(Br)ccc1O` gave a pIC50 in test [1] of less than 4.61. Consider `O=c1c(-c2ccc(O)cc2)c(CSC2=NCCS2)oc2cc(O)cc(O)c12`, for which, in test [1], the pIC50 was 4.90. In turn, `Nc1ncnc2c1ncn2[C@@H]1O[C@H](COC(=O)c2ccc(S(=O)(=O)NCCCc3ccccc3)cc2)[C@@H](O)[C@H]1O` gave a pIC50 in test [2] of 4.22. Same read-out and setting: the value for `Nc1ncnc2c1ncn2[C@@H]1O[C@H](COP(=O)(O)OP(=O)(O)OP(=O)(O)OP(=O)(O)Oc2ccccc2)[C@@H](O)[C@H]1O` was 3.40; that for `CC(=O)NCCNP(=O)(O)OP(=O)(O)OP(=O)(O)OC[C@H]1O[C@@H](n2cnc3c(N)ncnc32)[C@H](O)[C@@H]1O` was 4.52.

Consider `CCOc1cc(/C=C(\C#N)C(N)=O)cc(CSc2ccc(C)cc2)c1O`, for which the pIC50 in test [1] is 4.70. The same measure, in the same setting: then `O=c1c(-c2ccc(O)cc2)c(CNC2=NCCS2)oc2cc(O)cc(O)c12`, with 4.28; and `Cc1oc2cc(O)cc(O)c2c(=O)c1-c1ccc(O)cc1`, with 5.15; and `COC(=O)c1oc2cc(O)cc(O)c2c(=O)c1-c1ccc(O)cc1`, with 5.22.

`Cc1cc(O)c2c(c1)C(=O)c1cc(O[C@@H]3O[C@H](CO)[C@@H](O)[C@H](O)[C@H]3O)cc(O)c1C2=O` showed a pIC50 in test [3] of less than 2.73. In turn, `CSCc1cc(/C=C2\C(=O)Nc3ccccc32)cc(CSC)c1O` gave a pIC50 in test [1] of 6.40. `N#C/C(=C/c1cc(Cc2ccccc2)c(O)c(Cc2ccccc2)c1)C(N)=O`: in test [1], the pIC50 is 6.22. With `N#CC(C#N)=C1C(=O)Nc2ccc(O)cc21`, the negative logarithm of the IC50 (pIC50) in test [1] was 5.00. Still for that read-out and setting: the value for `N#CC(C#N)=C1C(=O)Nc2cc(O)c(O)cc21` was 5.52. In turn, `CNC(=O)c1ccc(S(=O)(=O)Oc2ccc(/C=C/[N+](=O)[O-])cc2)cc1` gave a pIC50 in test [2] of less than 4.40. In the case of `CC(C)c1cc(/C=C2\C(=O)Nc3ccccc32)cc(C(C)C)c1O`, the pIC50 in test [1] is 6.40. Broadly, the pKi is the negative decadic logarithm of the Ki, by convention in mol/L. `CC(C)C[C@H](NC(=O)[C@H](CCCNC(=N)N)NC(=O)[C@@H](N)CCCNC(=N)N)C(=O)N[C@@H](CCC(=O)O)C(=O)N[C@@H](CCC(=O)O)C(=O)N[C@@H](CCC(=O)O)C(=O)N[C@@H](CCC(=O)O)C(=O)N[C@@H](CCC(=O)O)C(=O)N[C@@H](C)C(=O)N[C@@H](Cc1c(F)c(F)c(O)c(F)c1F)C(=O)NCC(=O)O` (stereo in doubt; 187D) had a pKi in test [1] of 4.70.

`CC(C)C[C@H](NC(=O)[C@H](CCCNC(=N)N)NC(=O)[C@@H](N)CCCNC(=N)N)C(=O)N[C@@H](CCC(=O)O)C(=O)N[C@@H](CCC(=O)O)C(=O)N[C@@H](CCC(=O)O)C(=O)N[C@@H](CCC(=O)O)C(=O)N[C@@H](CCC(=O)O)C(=O)N[C@@H](C)C(=O)N[C@@H](Cc1c(F)c(F)c(O)c(F)c1F)C(=O)NCC(=O)O` (stereo in doubt; 187L): the negative-log Ki (pKi) in test [1] was 5.40.

In turn, `O=C1c2ccccc2C(=O)c2c(O)cccc21` [1-HYDROXYANTHRAQUINONE] had a negative logarithm of the IC50 (pIC50) in test [3] of less than 2.45.

Compound `O=C1c2ccccc2C(=O)c2cc(O)ccc21` [2-HYDROXYANTHRAQUINONE] showed a pIC50 in test [3] of 4.05.

Regarding `O=c1cc(-c2ccccc2)oc2c(O)c(O)ccc12` [7,8-DIHYDROXYFLAVONE], in test [3], the negative logarithm of the IC50 (pIC50) is 3.50. On the same count and under the same terms, then `O=c1cc(-c2ccccc2)oc2cc(O)ccc12` [7-HYDROXYFLAVONE], with 3.47. For `O=c1cc(-c2ccc(O)cc2)oc2cc(O)cc(O)c12` [APIGENIN], the pIC50 in test [4] was 3.95; in test [3] it was 4.83.

Regarding `O=c1cc(-c2ccccc2)oc2cc(O)cc(O)c12` [CHRYSIN], the pIC50 in test [3] was 4.71. As for `O=c1c(O)c(-c2ccccc2)oc2cc(O)cc(O)c12` [GALANGIN], the negative-log IC50 (pIC50) in test [3] was 3.53.

As for `COc1cc(O)c2c(=O)cc(-c3ccc(O)cc3)oc2c1` [GENKWANIN], the negative-log IC50 (pIC50) in test [3] is 3.55.

In turn, `O=c1cc(-c2ccc(O)c(O)c2)oc2cc(O)cc(O)c12` [LUTEOLIN] had a negative-log IC50 (pIC50) in test [3] of 4.46. Same read-out and setting: then `COc1cc(O)c2c(c1)C(=O)c1cc(C)cc(O)c1C2=O` [PHYSCION], with less than 2.55; and `O=c1c(O)c(-c2ccc(O)c(O)c2)oc2cc(O)cc(O)c12` [QUERCETIN], with 3.88; and `COc1cc(-c2oc3cc(O)cc(O)c3c(=O)c2O)cc(OC)c1O` [SYRINGETIN], with 4.24.
